Experimental data reported in ChEMBL document CHEMBL3860098, “Sulfamide as Zinc Binding Motif in Small Molecule Inhibitors of Activated Thrombin Activatable Fibrinolysis Inhibitor (TAFIa)” (J Med Chem, 2016).

Assays:
[1] = molecular target: T1, Carboxypeptidase B2 (Homo sapiens, UniProt Q96IY4)
T1 sequence (Q96IY4 whole entry): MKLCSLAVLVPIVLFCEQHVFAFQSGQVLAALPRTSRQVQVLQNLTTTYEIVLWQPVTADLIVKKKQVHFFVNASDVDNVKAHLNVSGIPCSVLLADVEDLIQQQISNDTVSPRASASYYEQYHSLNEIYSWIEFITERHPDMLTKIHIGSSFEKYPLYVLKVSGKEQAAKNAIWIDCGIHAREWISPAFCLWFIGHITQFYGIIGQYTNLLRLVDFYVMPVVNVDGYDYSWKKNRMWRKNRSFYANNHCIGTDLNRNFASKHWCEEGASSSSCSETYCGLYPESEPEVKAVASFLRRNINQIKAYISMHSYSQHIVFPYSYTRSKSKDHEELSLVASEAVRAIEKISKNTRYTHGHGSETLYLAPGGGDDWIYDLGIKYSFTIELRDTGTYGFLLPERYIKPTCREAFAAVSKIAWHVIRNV
Description: Inhibition of activated human plasma TAFI incubated for 15 mins by chromogenic assay

[2] = molecular target: Prothrombin (Homo sapiens) (UniProt P00734); assay: Inhibition of factor 2a (unknown origin) at 100 uM relative to control
[3] = molecular target: T2, Coagulation factor VII (Homo sapiens) (UniProt P08709); assay: Inhibition of factor 7a (unknown origin) at 100 uM relative to control
T2 sequence (whole entry): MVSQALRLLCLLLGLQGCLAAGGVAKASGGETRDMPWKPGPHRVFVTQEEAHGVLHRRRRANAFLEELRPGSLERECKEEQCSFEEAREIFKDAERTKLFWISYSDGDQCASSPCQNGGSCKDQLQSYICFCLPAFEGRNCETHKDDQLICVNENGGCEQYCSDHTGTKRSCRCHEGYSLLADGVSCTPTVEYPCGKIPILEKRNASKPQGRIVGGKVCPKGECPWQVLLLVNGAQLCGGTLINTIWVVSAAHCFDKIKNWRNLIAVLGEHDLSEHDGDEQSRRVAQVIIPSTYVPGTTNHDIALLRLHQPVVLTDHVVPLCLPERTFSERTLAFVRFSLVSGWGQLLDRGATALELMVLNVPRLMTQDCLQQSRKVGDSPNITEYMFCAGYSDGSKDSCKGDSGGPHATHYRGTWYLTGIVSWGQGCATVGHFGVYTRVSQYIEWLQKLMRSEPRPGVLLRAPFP

[4] = molecular target: Coagulation factor X (Homo sapiens) (UniProt P00742); assay: Inhibition of factor 10a (unknown origin) at 100 uM relative to control
[5] = molecular target: Coagulation factor XI (Homo sapiens) (UniProt P03951); assay: Inhibition of factor 11a (unknown origin) at 100 uM relative to control
[6] = molecular target: T3, Coagulation factor XII (Homo sapiens) (UniProt P00748); assay: Inhibition of factor 12a (unknown origin) at 100 uM relative to control
T3 sequence (whole entry): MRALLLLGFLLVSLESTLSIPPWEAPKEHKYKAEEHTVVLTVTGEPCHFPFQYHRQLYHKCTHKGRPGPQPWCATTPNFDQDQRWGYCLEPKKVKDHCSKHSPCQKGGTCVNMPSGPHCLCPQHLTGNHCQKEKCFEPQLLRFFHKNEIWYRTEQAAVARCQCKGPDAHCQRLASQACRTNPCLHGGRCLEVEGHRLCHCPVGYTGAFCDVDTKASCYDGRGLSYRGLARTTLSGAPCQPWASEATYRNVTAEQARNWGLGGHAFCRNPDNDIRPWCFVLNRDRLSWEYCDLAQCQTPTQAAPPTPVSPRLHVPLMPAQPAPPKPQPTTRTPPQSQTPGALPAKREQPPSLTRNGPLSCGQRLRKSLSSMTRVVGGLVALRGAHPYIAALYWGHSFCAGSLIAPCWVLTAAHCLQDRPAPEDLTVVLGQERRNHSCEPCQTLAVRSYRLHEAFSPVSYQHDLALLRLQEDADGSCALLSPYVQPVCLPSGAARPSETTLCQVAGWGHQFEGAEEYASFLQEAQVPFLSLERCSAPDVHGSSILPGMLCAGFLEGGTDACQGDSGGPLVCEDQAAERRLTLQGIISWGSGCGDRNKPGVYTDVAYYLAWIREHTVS

[7] = molecular target: Urokinase-type plasminogen activator (Homo sapiens) (UniProt P00749); assay: Inhibition of urokinase (unknown origin) at 100 uM relative to control
[8] = molecular target: T4, Complement C1s subcomponent (Homo sapiens) (UniProt P09871); assay: Inhibition of C1s (unknown origin) at 100 uM relative to control
T4 sequence (whole entry): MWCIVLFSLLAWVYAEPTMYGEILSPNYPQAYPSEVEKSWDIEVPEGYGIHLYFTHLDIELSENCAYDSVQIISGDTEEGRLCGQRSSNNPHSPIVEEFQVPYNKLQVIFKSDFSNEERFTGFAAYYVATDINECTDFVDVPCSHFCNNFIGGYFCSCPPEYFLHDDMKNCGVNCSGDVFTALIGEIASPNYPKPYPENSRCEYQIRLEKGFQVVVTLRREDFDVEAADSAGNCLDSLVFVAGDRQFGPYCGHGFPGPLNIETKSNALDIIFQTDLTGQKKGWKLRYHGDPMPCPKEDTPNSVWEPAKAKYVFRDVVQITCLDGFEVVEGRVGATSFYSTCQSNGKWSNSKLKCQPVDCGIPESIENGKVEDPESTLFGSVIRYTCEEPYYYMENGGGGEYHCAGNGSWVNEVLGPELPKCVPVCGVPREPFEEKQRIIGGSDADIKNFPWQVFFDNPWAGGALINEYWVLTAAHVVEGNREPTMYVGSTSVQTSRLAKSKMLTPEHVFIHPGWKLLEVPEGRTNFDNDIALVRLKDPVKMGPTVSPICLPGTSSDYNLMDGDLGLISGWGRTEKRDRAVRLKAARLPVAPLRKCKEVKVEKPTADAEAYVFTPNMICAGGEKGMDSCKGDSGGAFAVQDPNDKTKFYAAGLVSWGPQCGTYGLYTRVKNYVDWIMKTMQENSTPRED

[9] = molecular target: Tissue-type plasminogen activator (Homo sapiens) (UniProt P00750); assay: Inhibition of tPA (unknown origin) at 100 uM relative to control
[10] = organism: Homo sapiens; assay: Inhibition of tryptase (unknown origin) at 100 uM relative to control
[11] = organism: Homo sapiens; assay: Inhibition of trypsin (unknown origin) at 100 uM relative to control
[12] = molecular target: Plasminogen (Homo sapiens) (UniProt P00747); assay: Inhibition of plasmin (unknown origin) at 100 uM relative to control
[13] = molecular target: Plasma kallikrein (Homo sapiens) (UniProt P03952); conditions: 100 uM
Chain of Plasma kallikrein (Homo sapiens) (P03952 20-390 limits assumed): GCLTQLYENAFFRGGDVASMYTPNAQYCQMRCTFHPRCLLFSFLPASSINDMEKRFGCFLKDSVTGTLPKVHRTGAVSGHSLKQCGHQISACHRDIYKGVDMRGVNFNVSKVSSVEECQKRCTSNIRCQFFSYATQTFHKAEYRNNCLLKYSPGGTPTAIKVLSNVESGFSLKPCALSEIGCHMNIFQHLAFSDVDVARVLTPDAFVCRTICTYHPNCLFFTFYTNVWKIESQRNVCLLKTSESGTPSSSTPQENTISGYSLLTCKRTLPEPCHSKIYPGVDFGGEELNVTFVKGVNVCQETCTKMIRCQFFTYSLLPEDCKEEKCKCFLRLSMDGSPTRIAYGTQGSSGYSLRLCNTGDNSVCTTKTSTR
Chain of Plasma kallikrein (Homo sapiens) (P03952 391-638 limits assumed): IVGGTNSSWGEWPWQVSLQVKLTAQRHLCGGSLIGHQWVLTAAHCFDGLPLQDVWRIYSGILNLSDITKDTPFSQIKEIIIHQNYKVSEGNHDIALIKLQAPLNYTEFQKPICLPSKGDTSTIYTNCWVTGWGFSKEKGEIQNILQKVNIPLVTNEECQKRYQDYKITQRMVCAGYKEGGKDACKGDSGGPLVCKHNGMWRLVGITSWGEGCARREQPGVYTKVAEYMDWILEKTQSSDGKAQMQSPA
Description: Inhibition of KLKB1 (unknown origin) at 100 uM relative to control

Chain of Coagulation factor XI (Homo sapiens) (P03951 19-387 limits assumed): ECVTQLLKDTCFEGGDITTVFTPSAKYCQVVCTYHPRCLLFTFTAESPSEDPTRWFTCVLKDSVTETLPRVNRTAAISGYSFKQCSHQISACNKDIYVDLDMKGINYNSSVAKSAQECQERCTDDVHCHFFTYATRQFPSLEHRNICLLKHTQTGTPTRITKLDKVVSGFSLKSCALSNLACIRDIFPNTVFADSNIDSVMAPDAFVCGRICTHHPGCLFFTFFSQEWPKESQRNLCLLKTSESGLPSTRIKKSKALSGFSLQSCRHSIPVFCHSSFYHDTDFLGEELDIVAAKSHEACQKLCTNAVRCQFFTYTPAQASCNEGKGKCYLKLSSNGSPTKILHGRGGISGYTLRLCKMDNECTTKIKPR
Chain of Coagulation factor XI (Homo sapiens) (P03951 388-625 limits assumed): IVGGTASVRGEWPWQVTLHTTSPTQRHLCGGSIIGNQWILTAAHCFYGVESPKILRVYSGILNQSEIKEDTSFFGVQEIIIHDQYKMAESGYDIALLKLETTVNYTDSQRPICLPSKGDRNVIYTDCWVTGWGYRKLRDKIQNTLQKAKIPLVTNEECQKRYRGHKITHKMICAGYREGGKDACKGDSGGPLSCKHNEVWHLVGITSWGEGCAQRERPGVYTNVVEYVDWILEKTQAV
Chain of Coagulation factor X (Homo sapiens) (P00742 41-179 limits assumed): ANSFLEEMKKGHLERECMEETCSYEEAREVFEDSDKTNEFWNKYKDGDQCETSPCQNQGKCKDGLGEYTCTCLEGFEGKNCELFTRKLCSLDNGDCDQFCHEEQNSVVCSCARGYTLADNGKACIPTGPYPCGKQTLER
Chain of Coagulation factor X (Homo sapiens) (P00742 235-488 limits assumed): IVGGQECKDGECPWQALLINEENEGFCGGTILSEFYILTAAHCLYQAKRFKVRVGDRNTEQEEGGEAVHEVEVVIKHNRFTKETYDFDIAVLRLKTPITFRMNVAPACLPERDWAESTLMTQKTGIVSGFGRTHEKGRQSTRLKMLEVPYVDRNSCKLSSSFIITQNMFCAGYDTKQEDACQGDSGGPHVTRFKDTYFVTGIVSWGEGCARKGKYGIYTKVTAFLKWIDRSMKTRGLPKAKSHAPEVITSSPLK
Chain of Plasminogen (Homo sapiens) (P00747 97-580 limits assumed): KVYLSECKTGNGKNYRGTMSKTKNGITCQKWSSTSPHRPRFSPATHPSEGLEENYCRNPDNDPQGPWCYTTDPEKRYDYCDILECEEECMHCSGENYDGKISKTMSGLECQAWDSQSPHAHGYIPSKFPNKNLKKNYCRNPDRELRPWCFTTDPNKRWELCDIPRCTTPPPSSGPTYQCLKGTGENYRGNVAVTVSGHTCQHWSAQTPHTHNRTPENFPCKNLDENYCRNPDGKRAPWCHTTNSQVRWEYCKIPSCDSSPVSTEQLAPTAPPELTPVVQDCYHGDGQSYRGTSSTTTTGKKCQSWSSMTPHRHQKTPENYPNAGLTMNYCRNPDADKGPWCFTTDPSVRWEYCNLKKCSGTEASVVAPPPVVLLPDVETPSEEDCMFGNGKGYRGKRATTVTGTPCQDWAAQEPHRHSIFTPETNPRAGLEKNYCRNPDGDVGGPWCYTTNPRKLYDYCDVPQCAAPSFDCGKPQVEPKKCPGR
Chain of Plasminogen (Homo sapiens) (P00747 581-810 limits assumed): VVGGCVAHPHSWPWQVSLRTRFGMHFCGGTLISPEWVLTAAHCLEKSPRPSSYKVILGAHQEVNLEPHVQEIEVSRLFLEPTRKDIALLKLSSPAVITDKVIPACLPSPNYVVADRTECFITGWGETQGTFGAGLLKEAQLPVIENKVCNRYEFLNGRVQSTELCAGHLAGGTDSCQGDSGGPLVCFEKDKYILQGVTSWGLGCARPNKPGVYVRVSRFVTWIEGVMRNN
Chain of Tissue-type plasminogen activator (Homo sapiens) (P00750 36-562 limits assumed): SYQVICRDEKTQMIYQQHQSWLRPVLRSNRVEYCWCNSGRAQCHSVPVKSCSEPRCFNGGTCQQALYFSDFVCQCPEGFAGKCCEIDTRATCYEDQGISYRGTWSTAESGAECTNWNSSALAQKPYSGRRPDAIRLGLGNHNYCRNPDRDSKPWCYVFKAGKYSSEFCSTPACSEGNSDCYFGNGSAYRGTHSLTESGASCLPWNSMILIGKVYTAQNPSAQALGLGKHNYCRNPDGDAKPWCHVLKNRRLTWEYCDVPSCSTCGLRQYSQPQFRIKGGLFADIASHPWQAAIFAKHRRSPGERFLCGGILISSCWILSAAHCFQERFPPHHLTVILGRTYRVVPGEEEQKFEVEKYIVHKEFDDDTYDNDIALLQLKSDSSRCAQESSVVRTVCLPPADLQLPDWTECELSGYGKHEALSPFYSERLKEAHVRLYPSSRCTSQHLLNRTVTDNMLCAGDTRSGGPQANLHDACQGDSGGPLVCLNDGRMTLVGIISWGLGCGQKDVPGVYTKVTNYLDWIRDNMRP

CC1(C)[C@@H]2CC[C@@]1(C)[C@@H](NC(=O)[C@H](CC1CCCCC1)NS(=O)(=O)N[C@@H](CCCCNC(N)=O)C(=O)O)C2
IC50 [1]: > 30 µM

NCCCC[C@H](NS(N)(=O)=O)C(=O)O
IC50 [1]: 15 µM

CC(C)(C)NC(=O)[C@H](CC1CCCCC1)NS(=O)(=O)N[C@@H](CCCCN)C(=O)O
IC50 [1]: 6.7 µM

CC1(C)[C@@H]2CC[C@@]1(C)[C@@H](NC(=O)[C@H](CC1CCCCC1)NS(=O)(=O)N[C@@H](CCCCN)C(=O)O)C2
inhibition [2]: < 40% | inhibition [3]: < 40% | inhibition [4]: < 40% | inhibition [5]: < 40% | inhibition [6]: < 40% | inhibition [7]: < 40% | inhibition [8]: < 40% | inhibition [9]: < 40% | inhibition [10]: < 40% | inhibition [11]: < 40% | inhibition [12]: < 40% | inhibition [13]: < 40%

C[C@H](NS(=O)(=O)N[C@@H](CCCCN)C(=O)O)C(=O)NC12CC3CC(CC(C3)C1)C2
IC50 [1]: > 30 µM

NCCCC[C@H](NS(=O)(=O)NCC(=O)NC12CC3CC(CC(C3)C1)C2)C(=O)O
IC50 [1]: > 30 µM

CC1(C)C2CCC1(C)[C@@H](NC(=O)[C@H](CC1CCCCC1)NC(=O)N[C@@H](CCCCN)C(=O)O)C2 (some centres undefined)
IC50 [1]: 0.003 µM

CC1(C)[C@@H]2CC[C@@]1(C)[C@@H](NC(=O)[C@H](CC1CCCCC1)NS(=O)(=O)N[C@@H](CCCCO)C(=O)O)C2
IC50 [1]: > 30 µM
